Series [1] can be described thus: Morphological assessment / tolerability of treated PC3-mice. In kind it is in vivo. The procedure: Selected mouse organs (kidney, pancreas and tumor) were dissected from the sacrificed animals and immediately frozen using liquid nitrogen. Frozen tissue samples were sectioned at 7 μm thickness using a cryostat maintained at −20 °C to −25 °C and mounted onto microscope glass slides, followed by staining with hematoxylin and eosin for microscopic examination using standard protocols (supplementary material).
Frozen tissue samples (kidney, pancreas and tumor) were sectioned at 7 µm thickness using a cryostat maintained at −20°C to −25°C and mounted onto microscope glass slides. Sections were air-dried at room temperature for 15 minutes and subsequently fixed in 4% paraformaldehyde for 10 minutes. After rinsing in phosphate-buffered saline, slides were stained with hematoxylin for 5 minutes, rinsed in running tap water and differentiated in 1% acid alcohol followed by bluing in ammonia water. Sections were then counterstained with eosin for 1 minute and briefly washed in 70% ethanol to remove excess stain. Slides were dehydrated through graded ethanol (70%, 95%, 100%) and mounted with a permanent mounting medium. Stained sections were examined using a light microscope.

Series [2] has as its system PC3 tumors. Put plainly: In vivo combination therapy with everolimus in PC3-mice.
Procedure: (b) Everolimus monotherapy: Mice received everolimus (5 mg/kg/day) on days 0, 2, and 4 of the therapy.

As to `CO[C@H]1C[C@@H]2CC[C@@H](C)[C@@](O)(O2)C(=O)C(=O)N2CCCC[C@H]2C(=O)O[C@H]([C@H](C)C[C@@H]2CC[C@@H](OCCO)[C@H](OC)C2)CC(=O)[C@H](C)/C=C(\C)[C@@H](O)[C@@H](OC)C(=O)[C@H](C)C[C@H](C)/C=C/C=C/C=C/1C` [everolimus], in series [1] (5mg/kg (x3)), the “Microscopic tissue examination, kidney” value is “Vacuolar degeneration of some tubular epithelial cells. No other obvious lesions” and the “Microscopic tissue examination, pancreas” value is given as “No obvious lesions”. Also, the “Tolerability (physical condition, weight fluctuations)” value in series [1] (PC3-mice, three doses of everolimus) was “no observable side effects”. In addition, the “Time tumor volume kept under 500 mm^3” value in series [2] (everolimus alone 5 mg/kg/day on days 0, 2, 4) is 20 days. The Median survival in series [2] (everolimus alone 5 mg/kg/day on days 0, 2, 4, p > 0.5) was ~ 25 days.

Source of the values: article PMC12920379 (European Journal of Nuclear Medicine and Molecular Imaging, 2025).
